# Results: PMC3006138, “Fexinidazole – A New Oral Nitroimidazole Drug Candidate Entering Clinical Development for the Treatment of Sleeping Sickness” (PLoS Neglected Tropical Diseases, 2010)
# Values joined by “and” are separate entries in the source; they are usually repeats but may differ in a detail not shown here. Equal values may be shown once. Read-outs that look alike come from different tables or passages of the source.
# Legend:
# rat liver cells = experiment: Ex vivo unscheduled DNA synthesis; type: in vivo; details: 75 mg/kg, positive control
# Description: Groups of young male Sprague-Dawley rats received fexinidazole at doses of 500, 1000, or 2000 mg/kg orally, and the livers were sampled either 2–4 h or 12–14 h after administration. Hepatocyte suspensions were prepared and incubated in the presence of […] thymidine. Slides of fixed hepatocytes were coated in photographic emulsion and stored for 14 days at 4°C in the dark. The silver grains above the nuclei or cytoplasm (background) were counted, providing a measure of DNA uptake during DNA repair. The difference between these two counts indicated the extent of DNA repair (nuclear net grain count).
# [1] = Hepatocyte intrinsic clearance and metabolite profile; type: in vitro ADME, cynomolgus monkey; details: male, cynomolgus, cynomolgus monkey, cryopreserved hepatocytes, 1 µM
# Description: (§1) Fexinidazole was incubated with cryopreserved hepatocytes from male CD-1 mice, male Sprague Dawley rats, male beagle dogs, male cynomolgus monkeys, and from pooled white or African-American human donor samples (purchased commercially), at concentrations of 1 µM and 10 µM. […] The incubated samples were analyzed by LC-MS after extraction into acetonitrile.
# (§2) A quality control analysis of fexinidazole was performed via 1H-NMR in DMSO and LC- […]
# (§3) provided by the Swiss Tropical Institute (Basel, Switzerland).
# (§4) Reagents and solvents were of analytical grade and obtained from Sigma-Aldrich (St. Louis, […]
# (§5) Cryopreserved hepatocytes from the male CD1 mouse, lot CSI; male Sprague Dawley rat, lot LPL; male beagle dog, lot BWX; male cynomolgus monkey, lot EHH; and pooled human samples, lot MJI, were purchased from In Vitro Technologies Inc (Baltimore, Maryland, […]
# (§6) 5.4. In vitro Incubations
# (§7) On the day of the experiment a 10 mM stock solution of fexinidazole in DMSO was prepared and, within 3 hours, aliquots of this freshly prepared solution, after suitable dilution, were added to the incubation matrix, to reach fexinidazole final concentrations of 1 and 10 µM. The final percentage of DMSO was 0.01% in the incubation samples for the […]
# (§8) On the day of experiment, the cryopreserved hepatocytes were thawed following the detailed instructions provided by the supplier.
# (§9) The number of viable cells was determined using a Trypan Blue exclusion method.
# (§10) 5.4.1. Intrinsic Clearance Study […]
# (§11) µM with mouse, rat, dog, monkey and human hepatocytes (300000 cells/mL for the mouse and 1 million cells/mL for the other species) in a final incubation volume of 0.75 mL […]
# (§12) Incubations were performed in duplicate in a 48-well plate under shaking. Sampling was performed using an automatic liquid handling system (Multiprobe II EX, Packard). At 0, 1, 5, 10, 15, 20, 30, 60 and 120 minutes, 50 µL aliquots of the incubates were taken, then 80 µL of ice-cold acetonitrile and 20 µL of 1 µM warfarin in acetonitrile (internal standard) were added, and samples centrifuged at 2000 rpm for 20 min. The supernatant was analyzed by LC-MS/MS. […]
# (§13) the medium alone at t = 0 and 120 minutes.
# (§14) For the determination of phase I and phase II activity of hepatocytes, 7-ethoxycoumarin (7-EC) 1 µM, and 7-hydroxycoumarin (7-HC) 30 µM were used as positive controls and incubated under the same conditions as fexinidazole. Aliquots of incubates were taken at 0, 10, 20, 30, 60 and 120 minutes and processed as fexinidazole samples.
# (§15) 5.4.2. Metabolite Profile Study
# (§16) For metabolite profiling, fexinidazole was incubated at a concentration of 10 µM with mouse, rat, dog, monkey and human hepatocytes (300000 cells/mL for the mouse and 1 million cells/mL for the other species) in a final incubation volume of 2 mL Leibovitz L-15 […]
# (§17) Aliquots of the incubation samples were taken at t = 0, 30 and 120 minutes; the metabolism was stopped by the addition of an equal volume of cold acetonitrile and the samples centrifuged at 1500 rpm for 20 min. The supernatant was stored at -20°C until analysis. Control incubations were performed with the compound in the medium alone […]
# (§18) 5.5. Analysis of Samples for Intrinsic Clearance Determination
# (§19) The analysis of the samples for intrinsic clearance determination was performed by an LC-MS/MS method, using the following conditions:
# (§20) HPLC Equipment and Conditions
# (§21) HPLC system Agilent 1100 binary pump (Agilent, Palo Alto, USA)
# (§22) Autosampler CTC Pal (Alfatech, San Jose, USA)
# (§23) Analytical column Guard Column SB-C8 4.6 x 12.5 mm, 5 µm (Zorbax)
# (§24) Column temperature ambient
# (§25) Mobile phase A 10 mM ammonium formate pH 4.0: acetonitrile (95:5, v:v)
# (§26) Mobile phase B 10 mM ammonium formate pH 4.0: acetonitrile (5:95, v:v) […]
# (§27) Gradient conditions Step Total time (min) flow (µL/min) %A % B […]
# (§28) MS Equipment and Conditions
# (§29) Mass spectrometer API 4000 Triple Quadrupole (MDS-Sciex, Toronto, […]
# (§30) Source Turbo Ion Spray (TIS)
# (§31) Ion mode Positive for fexinidazole and 7-EC.
# (§32) Negative for 7-HC, 7-HC sulphate and 7-HC glucuronide.
# [2] = as above; type: in vitro ADME, human; details: human
# Description: as §1
# Fexinidazole sulfoxide, lot 1106-I-0170, 99.3% purity, and fexinidazole sulfone, lot 1106-I-0171, 99.9% purity, were provided by the Sponsor.
# Cryopreserved hepatocytes of five single donors, lots EHI, REL, KSE […]
# ZIJ and MRS, were purchased from In Vitro Technologies Inc (Baltimore, Maryland, USA).
# The certificates of analysis are reported in Appendix 1.
# as §4
# 7.5. In Vitro Incubations
# as §7
# The cryopreserved hepatocytes were thawed according to the supplier’s procedure and the number of viable cells was determined using the Trypan Blue exclusion method. Viabilities were 92% for lot EHI, 89% for lot REL, 82% for lot KSE, 86% for lot ZIJ and 86% for lot MRS in the intrinsic clearance study. In the metabolite profile study viabilities were 91% for lot EHI, 90% for lot REL, 85% for lot KSE, 84% for lot ZIJ and 87% for lot MRS.
# Afterwards, the same amount of viable cells for each donor were pooled and used for the incubations of fexinidazole.
# 7.5.1. Intrinsic Clearance Study […]
# µM with pooled human hepatocytes (1 million cells/mL) in a final incubation volume of 1 mL Leibovitz L-15 medium, at 37°C. Incubations were performed in duplicate in a 48-well plate under shaking. Sampling was performed using an automatic liquid handling system (Multiprobe II EX, Packard). At 0, 1, 5, 10, 15, 20, 30, 60 and 120 minutes, 50 µL aliquots of the incubates were taken, then 80 µL of ice-cold acetonitrile and 20 µL of 1 µM warfarin in acetonitrile (internal standard) were added, and samples centrifuged at 2000 rpm for 20 min. The supernatant was analyzed by LC-MS/MS. […]
# The chemical stability of fexinidazole was checked by incubating the compound at 37°C in the medium alone at t = 0 and 120 minutes.
# For the determination of phase I and phase II activities of hepatocytes, 7-ethoxycoumarin (7-ETC) 1 µM, and 7-hydroxycoumarin (7-HC) 30 µM were used as positive controls and incubated under the same conditions as fexinidazole. Aliquots of incubates were taken at 0, 1, 5, 10, 15, 20, 30, 60 and 120 minutes and processed as fexinidazole samples.
# 7.5.2. Metabolite Profile Study
# For metabolite profiling, fexinidazole was incubated at a concentration of 10 µM with pooled human hepatocytes (1 million cells/mL) in a final incubation volume of 2 mL Leibovitz L-15 medium, at 37°C. Aliquots of the incubation samples were taken at t = 0, 30 and 120 minutes; the metabolism was stopped by the addition of an equal volume of cold acetonitrile and the samples centrifuged at 1100 rpm for 20 min. The supernatant was stored at -20°C until analysis. Control incubations were performed with the compound in the medium alone for 120 minutes.
# 7.6. Analysis of the Samples of Intrinsic Clearance Study
# as §19, §20
# HPLC system 1100 binary pump (Agilent, Palo Alto, USA)
# Autosampler 2777 (Waters)
# as §23, §24, §25, §26, §27
# [3] = as above; type: in vitro ADME, dog; details: male, beagle, dog, cryopreserved hepatocytes, 1 µM
# Description: as §1, §2, §3, §4, §5, §6, §7, §8, §9, §10, §11, §12, §13, §14, §15, §16, §17, §18, §19, §20, §21, §22, §23, §24, §25, §26, §27, §28, §29, §30, §31, §32
# [4] = as above; type: in vitro ADME, rat; details: male, Sprague Dawley, rat, cryopreserved hepatocytes, 1 µM
# Description: as §1, §2, §3, §4, §5, §6, §7, §8, §9, §10, §11, §12, §13, §14, §15, §16, §17, §18, §19, §20, §21, §22, §23, §24, §25, §26, §27, §28, §29, §30, §31, §32
# [5] = as above; type: in vitro ADME, human; details: human, cryopreserved pooled hepatocytes, 1 µM
# Description: as §1, §2, §3, §4, §5, §6, §7, §8, §9, §10, §11, §12, §13, §14, §15, §16, §17, §18, §19, §20, §21, §22, §23, §24, §25, §26, §27, §28, §29, §30, §31, §32
# [6] = as above; type: in vitro ADME, mouse; details: male, CD-1, mouse, cryopreserved hepatocytes, 1 µM
# Description: as §1, §2, §3, §4, §5, §6, §7, §8, §9, §10, §11, §12, §13, §14, §15, §16, §17, §18, §19, §20, §21, §22, §23, §24, §25, §26, §27, §28, §29, §30, §31, §32
# human lymphocytes = experiment: In vitro micronucleus test; type: cell-based; details: 6.25 µg/mL, +S9, positive control
# Description: Duplicate human lymphocyte cultures were prepared from the pooled blood of two donors in two independent experiments. […] The test concentrations for micronucleus analysis were selected by evaluating the effect of fexinidazole on the replication index (RI). In each experiment, micronuclei were analysed at three concentrations. Similar tests were carried out on fexinidazole sulfone. As per the Ames test, this was carried out in the absence of rat liver S9 only.
# [7] = test system: bone marrow polychromatic erythrocytes; experiment: In vivo bone marrow micronucleus test; set-up: species or system mouse; details: 4.0 mg/kg, positive control
# Description: Groups of six young adult male Crl:CD-1 (ICR) mice were treated with fexinidazole at two oral doses of 0, 500, 1000, or 2000 mg/kg given 24 h apart, and bone marrows were harvested 24 h after the second dose. Slides of bone marrow cells were prepared, Giemsa stained, and 2000 polychromatic erythrocytes per animal were scored for micronuclei.
# [8] = test system: T. b. rhodesiense (STIB 900); experiment: In vitro trypanocidal assay (Alamar Blue); type: cell-based, Trypanosoma brucei rhodesiense; details: Trypanosoma brucei, 72 h; read-out: IC50
# Description: (§33) 10 µL of Alamar Blue was added for the final 3 h to determine viability. […] The IC50 values were calculated from the sigmoidal inhibition curves. For cytotoxicity, 4×10^4/mL L-6 rat skeletal myoblast cells were used, and incubations and assessments carried out as above.
# L-6 rat myoblast cells = experiment: Cytotoxicity assay; type: cell-based; details: 72 h, read-out: IC50
# Description: as §33
# [9] = test system: T. b. gambiense (STIB 930); experiment: In vitro trypanocidal assay (Alamar Blue); type: cell-based, Trypanosoma brucei gambiense; details: Trypanosoma brucei, 72 h; read-out: IC50
# Description: Parasites were cultured with or without the test article at a concentration of 3×10^4/mL in Minimal Essential Medium, according to Baltz et al., with the following modifications: 0.2 mM 2-mercaptoethanol, 1 mM Na-pyruvate, 0.5 mM hypoxanthine and 15% heat inactivated horse serum at 37°C in 5% CO2 in 96-well microtitre plates for 72 h. 10 µL of Alamar Blue was added for the final 3 h to determine viability. The assay was assessed by reading the fluorescence in each well at an excitation wavelength of 536 nm and at an emission wavelength of 588 nm. The IC50 values were calculated from the sigmoidal inhibition curves. For cytotoxicity, 4×10^4/mL L-6 rat skeletal myoblast cells were used, and incubations and assessments carried out as above.
smiles,measurement,setting,value
"CC(=O)Nc1ccc2c(c1)Cc1ccccc1-2 [2-acetamidofluorene, reference compound]",Net nuclear grain count (12–14 h),rat liver cells,9.8
"CCOc1ccc2ccc(=O)oc2c1 [7-ethoxycoumarin, reference compound]",half-life at 1 µM,[1],2.5 min
same,CLint scaled at 1 µM,[1]; read-out: CLint in vitro,1480 mL/min/kg
same,hepatocyte CLint at 1 µM,[1]; read-out: CLint in vitro,272 µL/min/1e6 cells
same,half-life at 1 µM,[2],6.4 min
same,CLint scaled at 1 µM,[2]; read-out: CLint in vitro,258 mL/min/kg
same,hepatocyte CLint at 1 µM,[2]; read-out: CLint in vitro,108 µL/min/1e6 cells
same,half-life at 1 µM,[3],1.7 min
same,CLint scaled at 1 µM,[3]; read-out: CLint in vitro,3110 mL/min/kg
same,hepatocyte CLint at 1 µM,[3]; read-out: CLint in vitro,405 µL/min/1e6 cells
same,half-life at 1 µM,[4],13.2 min
same,CLint scaled at 1 µM,[4]; read-out: CLint in vitro,251 mL/min/kg
same,hepatocyte CLint at 1 µM,[4]; read-out: CLint in vitro,52.4 µL/min/1e6 cells
same,half-life at 1 µM,[5],4.8 min
same,CLint scaled at 1 µM,[5]; read-out: CLint in vitro,345 mL/min/kg
same,hepatocyte CLint at 1 µM,[5]; read-out: CLint in vitro,144 µL/min/1e6 cells
same,half-life at 1 µM,[6],2.6 min
same,CLint scaled at 1 µM,[6]; read-out: CLint in vitro,2380 mL/min/kg
same,hepatocyte CLint at 1 µM,[6]; read-out: CLint in vitro,901 µL/min/1e6 cells
"O=P1(N(CCCl)CCCl)NCCCO1 (centres unmarked) [Cyclophosphamide, reference compound]",Micronucleated binucleate cells,human lymphocytes; 24-h PHA,3.60%
same,Micronucleated binucleate cells,human lymphocytes; 48-h PHA,12.85%
same,Micronucleated PCE/1000,[7],19.3
same,PCE/NCE,[7],0.89
NCCCC(N)(C(=O)O)C(F)F (centres unmarked) [Eflornithine],IC50,[8],0.9 µg/mL and 3.8 µM
same,IC50,L-6 rat myoblast cells,12 µg/mL and 51 µM
same,IC50,[9],0.4 µg/mL and 1.67 µM
